Results published in the supplement of paper PMC11451515.

Test system: P12-Ichikawa
Assay: cell viability relative to DMSO control; higher = less cytotoxic
Conditions: 48 h
Summary of the method: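 Viability values are per-plate percentages of DMSO wells, with background from cell-free wells. Library compounds in DMSO were pin-dosed, in an 11-point threefold series from 47 μM to 0.79 nM, onto NOMO1 or SEM (500 cells/well) or P12-Ichikawa (1000 cells/well) leukemia cells in 1536-well plates (5 μl). Those cells had been adapted for at least four passages in each medium, and CellTiter-Glo One luminescence was read after 48 h at 37°C.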

[1] = RPMI 5 mM glucose + 10% dialyzed FBS, 0.000781 µM
[2] = RPMI 5 mM glucose + 10% dialyzed FBS, 0.00234 µM
[3] = RPMI 5 mM glucose + 10% dialyzed FBS, 0.00702 µM
[4] = RPMI 5 mM glucose + 10% dialyzed FBS, 0.0211 µM
[5] = RPMI 5 mM glucose + 10% dialyzed FBS, 0.0632 µM
[6] = RPMI 5 mM glucose + 10% dialyzed FBS, 0.19 µM
[7] = RPMI 5 mM glucose + 10% dialyzed FBS, 0.569 µM
[8] = RPMI 5 mM glucose + 10% dialyzed FBS, 1.71 µM
[9] = RPMI 5 mM glucose + 10% dialyzed FBS, 5.12 µM
[10] = RPMI 5 mM glucose + 10% dialyzed FBS, 15.4 µM
[11] = RPMI 5 mM glucose + 10% dialyzed FBS, 46.1 µM
[12] = HPLM + 10% dialyzed FBS, 0.000781 µM
[13] = HPLM + 10% dialyzed FBS, 0.00234 µM
[14] = HPLM + 10% dialyzed FBS, 0.00702 µM
[15] = HPLM + 10% dialyzed FBS, 0.0211 µM
[16] = HPLM + 10% dialyzed FBS, 0.0632 µM
[17] = HPLM + 10% dialyzed FBS, 0.19 µM
[18] = HPLM + 10% dialyzed FBS, 0.569 µM
[19] = HPLM + 10% dialyzed FBS, 1.71 µM
[20] = HPLM + 10% dialyzed FBS, 5.12 µM
[21] = HPLM + 10% dialyzed FBS, 15.4 µM
[22] = HPLM + 10% dialyzed FBS, 46.1 µM
[23] = RPMI 5 mM glucose + 10% FBS, 0.000781 µM
[24] = RPMI 5 mM glucose + 10% FBS, 0.00234 µM
[25] = RPMI 5 mM glucose + 10% FBS, 0.00702 µM
[26] = RPMI 5 mM glucose + 10% FBS, 0.0211 µM
[27] = RPMI 5 mM glucose + 10% FBS, 0.0632 µM
[28] = RPMI 5 mM glucose + 10% FBS, 0.19 µM
[29] = RPMI 5 mM glucose + 10% FBS, 0.569 µM
[30] = RPMI 5 mM glucose + 10% FBS, 1.71 µM
[31] = RPMI 5 mM glucose + 10% FBS, 5.12 µM
[32] = RPMI 5 mM glucose + 10% FBS, 15.4 µM
[33] = RPMI 5 mM glucose + 10% FBS, 46.1 µM

| Compound | cell viability [1] | cell viability [2] | cell viability [3] | cell viability [4] | cell viability [5] | cell viability [6] | cell viability [7] | cell viability [8] | cell viability [9] | cell viability [10] | cell viability [11] | cell viability [12] | cell viability [13] | cell viability [14] | cell viability [15] | cell viability [16] | cell viability [17] | cell viability [18] | cell viability [19] | cell viability [20] | cell viability [21] | cell viability [22] | cell viability [23] | cell viability [24] | cell viability [25] | cell viability [26] | cell viability [27] | cell viability [28] | cell viability [29] | cell viability [30] | cell viability [31] | cell viability [32] | cell viability [33] |
| --- | --- | --- | --- | --- | --- | --- | --- | --- | --- | --- | --- | --- | --- | --- | --- | --- | --- | --- | --- | --- | --- | --- | --- | --- | --- | --- | --- | --- | --- | --- | --- | --- | --- |
| O=C(c1ccc(F)cc1)C1CCN(CCn2c(=O)[nH]c3ccccc3c2=O)CC1 | 121% | 125% | 118% | 120% | 118% | 121% | 140% | 110% | 116% | 112% | 102% | – | – | – | – | – | – | – | – | – | – | – | – | – | – | – | – | – | – | – | – | – | – |
| COc1ccc(CCC(=O)Nc2nc3ccc(Cl)cc3s2)cc1OC | 113% | 94.1% | 105% | 113% | 110% | 105% | 99.7% | 105% | 103% | 91.9% | 92.6% | 106% | 106% | 106% | 112% | 111% | 107% | 110% | 102% | 104% | 99.3% | 98.6% | 109% | 118% | 94.9% | 114% | 111% | 110% | 110% | 108% | 109% | 107% | 92.1% |
| Cc1nc2c([nH]1)-c1ccccc1N(C(=O)c1ccc(NC(=O)c3ccccc3-c3ccccc3)cc1)CC2 | – | – | – | – | – | – | – | – | – | – | – | 114% | 120% | 122% | 117% | 127% | 126% | 124% | 128% | 121% | 128% | 128% | – | – | – | – | – | – | – | – | – | – | – |
| COc1ccc(-c2nc3cc(C4=NNC(=O)CC4C)ccc3[nH]2)cc1 (stereo not drawn) | 88.3% | 98.5% | 104% | 103% | 108% | 93.2% | 102% | 104% | 109% | 110% | 84.1% | 104% | 105% | 109% | 113% | 107% | 114% | 108% | 114% | 105% | 106% | 98.7% | 103% | 110% | 110% | 111% | 115% | 105% | 108% | 105% | 113% | 111% | 117% |
| NC/1=N/C(=O)N(/C=C1)[C@H]2CC[C@@H](CO)O2 | 59.6% | 87.9% | 88.1% | 90.3% | 85.1% | 90.4% | 96.6% | 93.9% | 98.2% | 90.9% | 30% | 85% | 95.4% | 93.5% | 101% | 95.9% | 102% | 96.1% | 106% | 95.5% | 104% | 37.6% | 88.3% | 87.6% | 88.6% | 94% | 102% | 91.1% | 99.6% | 92.2% | 94.3% | 90.9% | 41.8% |
| CN(C)[C@H]\1[C@@H]2[C@@H](O)[C@@H]\3C(=C)C4=C(C(=CC=C4)O)C(=O)C3=C(\O)[C@@]2(O)C(=O)\C(=C1O)C(N)=O | 126% | 122% | 119% | 123% | 129% | 128% | 118% | 117% | 125% | 119% | 107% | – | – | – | – | – | – | – | – | – | – | – | 115% | 120% | 124% | 126% | 115% | 128% | 120% | 125% | 122% | 111% | 99.1% |
| CC1=C2N=C([NH]C2=CC(=C1)N3CCOCC3)\C4=C(NC[C@@H](O)C5=CC=CC(=C5)Cl)\C=C/NC4=O | 101% | 117% | 120% | 118% | 116% | 119% | 120% | 128% | 110% | 105% | 85.7% | 102% | 104% | 103% | 109% | 113% | 110% | 112% | 115% | 106% | 100% | 90.8% | 104% | 108% | 106% | 109% | 115% | 114% | 119% | 117% | 117% | 106% | 85.6% |
| COc1cc2nc(-c3ccc(N4CCN(C)CC4)cc3)nc(NCCN3CCOCC3)c2cc1OC | 113% | 108% | 118% | 103% | 106% | 106% | 96.3% | 65.8% | 22.5% | 5.42% | 2.71% | 111% | 121% | 109% | 115% | 109% | 110% | 81.7% | 57.9% | 50% | 23.2% | 3.38% | 113% | 120% | 108% | 113% | 116% | 111% | 104% | 67% | 36.7% | 5.75% | 2.84% |
| COC1=CC=C2C(=CC=NC2=C1)OC3=CC=C(NC(=O)\C4=C(C)\N(CC(C)(C)O)N(C4=O)C5=CC=CC=C5)C=C3F | – | – | – | – | – | – | – | – | – | – | – | 121% | 123% | 122% | 123% | 123% | 132% | 135% | 132% | 129% | 122% | 118% | – | – | – | – | – | – | – | – | – | – | – |
| CC1(C)O[C@H]2CC(=O)OC[C@]23[C@H]2CC[C@@]4(C)[C@H](c5ccoc5)OC(=O)[C@H]5O[C@]54[C@]2(C)C(=O)C[C@@H]13 | 90.8% | 96.2% | 104% | 97.6% | 105% | 95.2% | 101% | 100% | 96.1% | 98.2% | 96.7% | 95.9% | 107% | 101% | 105% | 110% | 110% | 115% | 102% | 115% | 99.5% | 110% | 88.3% | 102% | 102% | 93.8% | 98.4% | 107% | 106% | 95.6% | 107% | 105% | 112% |
